These results are taken from ChEMBL document CHEMBL1135719, “Structural basis of RasGRP binding to high-affinity PKC ligands” (J Med Chem, 2002).

For orientation: Ki means the equilibrium dissociation constant of an inhibitor or competing ligand from its target. Higher therefore signals weaker binding.

The target in assay [1] is Protein kinase C delta type (Mus musculus, UniProt P28867). Description: Displacement of [3H]- PDBu from Protein kinase C delta C1b domain.
Assay [2] addresses T1, RAS guanyl-releasing protein 1 (Rattus norvegicus, UniProt Q9R1K8).
T1 sequence (Q9R1K8 whole entry): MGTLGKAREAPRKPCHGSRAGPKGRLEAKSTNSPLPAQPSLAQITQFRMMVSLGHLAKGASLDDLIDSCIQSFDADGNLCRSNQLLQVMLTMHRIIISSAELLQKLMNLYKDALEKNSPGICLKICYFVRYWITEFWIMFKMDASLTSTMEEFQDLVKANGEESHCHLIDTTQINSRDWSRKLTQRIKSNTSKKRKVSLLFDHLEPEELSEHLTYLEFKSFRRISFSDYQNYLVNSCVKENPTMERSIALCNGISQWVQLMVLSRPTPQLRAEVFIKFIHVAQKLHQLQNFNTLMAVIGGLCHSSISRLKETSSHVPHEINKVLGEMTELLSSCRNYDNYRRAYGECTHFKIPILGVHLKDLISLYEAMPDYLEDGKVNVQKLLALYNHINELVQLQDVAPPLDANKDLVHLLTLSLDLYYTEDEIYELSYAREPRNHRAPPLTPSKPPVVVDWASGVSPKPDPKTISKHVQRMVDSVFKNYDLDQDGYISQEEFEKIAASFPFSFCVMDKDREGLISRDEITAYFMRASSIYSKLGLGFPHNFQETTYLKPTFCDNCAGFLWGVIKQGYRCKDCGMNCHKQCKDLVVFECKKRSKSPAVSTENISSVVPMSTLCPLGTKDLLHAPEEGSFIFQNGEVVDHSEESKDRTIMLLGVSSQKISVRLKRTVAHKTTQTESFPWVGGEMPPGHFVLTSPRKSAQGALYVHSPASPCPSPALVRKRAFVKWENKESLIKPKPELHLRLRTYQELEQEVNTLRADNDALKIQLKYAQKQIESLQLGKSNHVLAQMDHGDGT
Put plainly: Binding affinity against RAS guanyl releasing protein using [3H]- PDBu as the labeled ligand.

Sequence of Protein kinase C delta type (P28867 whole entry, the tested form may be a part): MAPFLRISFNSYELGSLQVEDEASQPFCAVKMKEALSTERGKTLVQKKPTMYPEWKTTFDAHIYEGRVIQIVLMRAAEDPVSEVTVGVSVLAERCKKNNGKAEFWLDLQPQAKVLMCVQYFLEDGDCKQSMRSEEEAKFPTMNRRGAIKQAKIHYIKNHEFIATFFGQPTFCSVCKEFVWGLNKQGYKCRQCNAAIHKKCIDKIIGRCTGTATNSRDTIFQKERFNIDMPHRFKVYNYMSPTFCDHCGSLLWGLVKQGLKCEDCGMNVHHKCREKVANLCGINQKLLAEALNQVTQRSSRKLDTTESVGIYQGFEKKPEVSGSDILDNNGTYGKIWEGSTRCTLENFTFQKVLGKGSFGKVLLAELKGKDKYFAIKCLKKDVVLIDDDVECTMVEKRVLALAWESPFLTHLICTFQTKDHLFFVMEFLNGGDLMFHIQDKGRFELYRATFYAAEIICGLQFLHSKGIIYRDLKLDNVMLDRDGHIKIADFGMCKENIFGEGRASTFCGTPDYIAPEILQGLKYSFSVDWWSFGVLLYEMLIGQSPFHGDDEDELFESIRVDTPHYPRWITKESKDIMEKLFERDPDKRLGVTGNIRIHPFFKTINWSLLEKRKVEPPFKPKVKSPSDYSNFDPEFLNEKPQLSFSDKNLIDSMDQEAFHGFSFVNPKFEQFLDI

Regarding `CCCCCCCCc1ccc2c3c(c[nH]c13)C[C@@H](CO)NC(=O)[C@H](C(C)C)N2C`, the results for the Ki in assay [1] and in assay [2] were 0.1 nM and 0.85 nM, respectively. Taken in the same sequence, the figures for `CCCCCCCCC#Cc1ccc2c(c1)C[C@@H](CO)NC(=O)[C@H](C(C)C)N2C` were 10.7 nM and 6.15 nM. On the same counts, the results for `CCCCCCCCC#Cc1ccc2c(c1OC)C[C@@H](CO)NC(=O)[C@H](C(C)C)N2C` are 35.1 nM and 13.9 nM. The compound `CC(C)[C@H]1C(=O)N[C@H](CO)Cc2c[nH]c3cccc(c23)N1C` [INDOLACTUM] had a Ki in assay [2] of 2.54 nM.
